From patent US12077483B2, “Modified amine lipids” (Intellia Therapeutics, Inc., priority 2018, dated 2024) come the findings set out here.

One may read the pKa as the negative logarithm of the acid dissociation constant.

Data set [1] can be described thus: pKa of amine lipid by TNS fluorescence. Format: physicochemical. The conditions noted are these: probe TNS (6-(p-toluidino)-2-naphthalenesulfonic acid sodium salt), unformulated amine lipid in ethanol, sodium phosphate buffers -9.0. The procedure, abridged: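 Unformulated amine lipid, about 100 μM final, in 0.1 M sodium phosphate buffers spanning pH 4.5–9.0 with TNS. Fluorescence read at ex 321/em 448 nm; normalized data fitted sigmoidally to give pKa.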

Data set [2] is described as follows: LNP average particle size and polydispersity by dynamic light scattering. Format: physicochemical. The procedure, abridged:
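LNPs were diluted in PBS to a count rate of about 200-400 kcps and measured by DLS on a Zetasizer. Size is the intensity-weighted Z-average diameter, reported with number-average diameter, and the polydispersity index describes the spread of sizes around the mean.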

Data set [3] can be described thus: RNA encapsulation efficiency of LNP (Ribogreen fluorescence assay). Format: physicochemical. The conditions noted are these: for Encapsulation (%): LNP with the compound as amine lipid, composition ratio (mol %) 50/9/38/3 for Cmpnd 49, 50/10/38.5/1.5 for the others; for % E: Table 13, LNP sgRNA:Cas9 mRNA 1:2 w/w, N/P 6.0. The procedure, abridged:
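LNP samples diluted in 1× TE with or without 0.2% Triton-X 100 for total or free RNA, stained ~10 min at room temperature in the dark with RiboGreen; fluorescence ex 488/em 525 nm against RNA standard curves. Encapsulation efficiency = (Total RNA−Free RNA)/Total RNA.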

The subject of data set [4] is mouse TTR. The data set is described as follows: Serum TTR ELISA in mice after LNP delivery. Format: in vivo. The conditions noted are these: mouse serum, relative to TSS control of same experiment. The procedure, abridged:
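Female CD-1 mice received LNP at 0.1 mpk unless noted; serum was collected 6 or 7 days later. Total serum TTR was measured by mouse prealbumin ELISA at 10,000- and/or 2,500-fold dilution and is expressed as a percentage of vehicle control.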

Setting [5] is: LNP with the compound as amine lipid, Expt. 3, composition ratio (mol %) 50/9/38/3 for Cmpnd 49, 50/10/38.5/1.5 for the others.
The mark [6] stands for this setting: LNP with the compound as amine lipid, Expt. 10, composition ratio (mol %) 50/9/38/3 for Cmpnd 49, 50/10/38.5/1.5 for the others.
Where [7] appears, read: Table 13, LNP sgRNA:Cas9 mRNA 1:2 w/w, N/P 6.0.

Regarding `CCCCC/C=C\C/C=C\CCCCCCCC(=O)OCC(COC(=O)CCCCCCC/C=C\C/C=C\CCCCC)OC(=O)CCC(CCCCCCCC)OC(=O)NCCN1CCCC1` (stereo not shown) [Compound 51, 2-((4-(((2-(pyrrolidin-1-yl)ethyl)carbamoyl)oxy)dodecanoyl)oxy)propane-1,3-diyl (9Z,9′Z,12Z,12′Z)-bis(octadeca-9,12-dienoate)], the pKa in data set [1] is 6.37. In data set [2] (setting [5]), the “Num Ave Size (nm)” value was 80.57 nm, the PDI was 0.02 and the “Z-Ave Size (nm)” value stood at 96.78 nm. Also, in data set [2] (setting [6]), the “Num Ave Size (nm)” value was 82 nm, the PDI is reported as 0.02 and the “Z-Ave Size (nm)” value was 98 nm. For the same compound, in data set [2] (setting [7]), the “Number Average [nm]” value was found to be 80 nm, the PDI is listed as 0.009 and the “Z-Ave Size (nm)” value amounted to 97.21 nm. In addition, the “Encapsulation (%)” value in data set [3] (Expt. 3) was found to be 98%. For the same compound, in data set [3] (Expt. 10), the Encapsulation (%) came out at 98%. In data set [3], the “% E” value stood at 98%. Moreover, in data set [4] (dose 0.1 mpk), the “Serum TTR % TSS” value is on record as 9.32 % TSS.
On to `CCCCC/C=C\C/C=C\CCCCCCCC(=O)OCC(COC(=O)CCCCCCC/C=C\C/C=C\CCCCC)OC(=O)CCC(CCCCC)OC(=O)NCCN1CCCC1` (stereo not shown) [Compound 72, 2-((4-(((2-(pyrrolidin-1l-yl)ethyl)carbamoyl)oxy)nonanoyl)oxy)propane-1,3-diyl (9Z,9′Z,12Z,12′Z)-bis(octadeca-9,12-dienoate)], for which the pKa in data set [1] is 7.01. For the same compound, in data set [2] (setting [5]), the “Num Ave Size (nm)” value is on record as 88.38 nm, the PDI stood at 0.02 and the “Z-Ave Size (nm)” value came to 106.80 nm. Further, in data set [2] (setting [7]), the “Number Average [nm]” value is given as 91.47 nm, the PDI came to 0.018 and the “Z-Ave Size (nm)” value came out at 111.4 nm. Further, the “Encapsulation (%)” value in data set [3] (Expt. 3) is recorded as 98%. For the same compound, the “% E” value in data set [3] was 94%. In addition, the “Serum TTR % TSS” value in data set [4] (dose 0.03 mpk) turned out to be 66.92 % TSS. In addition, the “Serum TTR % TSS” value in data set [4] (dose 0.1 mpk) came out at 26.43 % TSS.
